Experimental data as given in ChEMBL document CHEMBL4251601 (Eur J Med Chem, 2018).

Tested on: not listed separately
Experiment: AUC (0 to infinity) in Sprague-Dawley rat at 2 mg/kg, iv administered as single dose by LC-MS/MS analysis
Format: ADME, organism-based
Design: dose 2 mg/kg, route intravenous, time infinity
Conditions: Sprague-Dawley, in vivo

In order of falling AUC(0-inf):
1. CCN1CCC(c2ccc(Nc3ncc(F)c(-c4cc(F)c5c(c4)C4(CCCC4)C(C)=N5)n3)nc2)CC1  3190 ng·h/mL
2. CCN1CCN(c2ccc(Nc3ncc(F)c(-c4cc(F)c5c(c4)C4(CCCC4)C(C)=N5)n3)nc2)CC1  2230 ng·h/mL
3. CCC1(C)C(C)=Nc2c(F)cc(-c3nc(Nc4ccc(N5CCN(C)CC5)cn4)ncc3F)cc21 (stereo not given)  504 ng·h/mL
4. CCC1(CC)C(C)=Nc2c(F)cc(-c3nc(Nc4ccc(N5CCN(C)CC5)cn4)ncc3F)cc21  213 ng·h/mL

Molecular target: Cyclin-dependent kinase 4/cyclin D1 (Homo sapiens, UniProt P11802)
Sequence (P11802 whole entry): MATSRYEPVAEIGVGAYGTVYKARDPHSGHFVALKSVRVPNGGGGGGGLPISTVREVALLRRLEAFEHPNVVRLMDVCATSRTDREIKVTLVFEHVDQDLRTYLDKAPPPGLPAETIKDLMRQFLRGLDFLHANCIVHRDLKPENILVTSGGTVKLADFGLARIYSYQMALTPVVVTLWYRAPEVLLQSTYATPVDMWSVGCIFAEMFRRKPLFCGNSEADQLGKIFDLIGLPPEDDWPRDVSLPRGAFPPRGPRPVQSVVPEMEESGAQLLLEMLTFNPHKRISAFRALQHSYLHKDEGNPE
Sequence (P24385 whole entry, further chain): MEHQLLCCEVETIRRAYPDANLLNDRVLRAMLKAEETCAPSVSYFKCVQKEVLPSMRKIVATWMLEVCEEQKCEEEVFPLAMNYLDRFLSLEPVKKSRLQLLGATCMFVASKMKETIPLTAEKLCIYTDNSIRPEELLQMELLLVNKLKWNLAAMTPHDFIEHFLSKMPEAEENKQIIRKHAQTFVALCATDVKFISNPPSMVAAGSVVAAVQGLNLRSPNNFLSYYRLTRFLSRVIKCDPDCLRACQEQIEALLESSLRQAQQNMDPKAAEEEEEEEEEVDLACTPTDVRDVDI
Experiment: Inhibition of CDK4/Cyclin-D1 (unknown origin) using histone-H1 as substrate after 90 mins by ADP-Glo assay
Format: protein-complex assay
Conditions: not given

In order of rising IC50:
1. CC1=Nc2ccc(-c3nc(Nc4ccc(C5CCNCC5)cn4)ncc3F)cc2C12CCCC2  4 nM
2. CCN1CCC(c2ccc(Nc3ncc(F)c(-c4cc(F)c5c(c4)C4(CCCC4)C(C)=N5)n3)nc2)CC1  6 nM
3. CCC1(C)C(C)=Nc2c(F)cc(-c3nc(Nc4ccc(N5CCN(C)CC5)cn4)ncc3F)cc21 (stereo not given)  6 nM
4. CCC1(CC)C(C)=Nc2c(F)cc(-c3nc(Nc4ccc(N5CCN(C)CC5)cn4)ncc3F)cc21  10 nM
5. CCN1CCN(c2ccc(Nc3ncc(F)c(-c4cc(F)c5c(c4)C4(CCCC4)C(C)=N5)n3)nc2)CC1  18 nM
6. CCC1(C)C(C)=Nc2ccc(-c3nc(Nc4ccc(N5CCNCC5)cn4)ncc3F)cc21 (stereo not given)  28 nM
7. CCN1CCC(c2ccc(Nc3ncc(F)c(-c4ccc5c(c4)C(C)(CC)C(C)=N5)n3)nc2)CC1 (stereo not given)  42 nM

Species on record: Homo sapiens
Experiment: Selectivity ratio of IC50 for CDK1/Cyclin-A2 (unknown origin) to IC50 for CDK6/Cyclin-D3 (unknown origin)
Conditions: not given

In order of rising Ratio IC50:
1. CCN1CCC(c2ccc(Nc3ncc(F)c(-c4ccc5c(c4)C(C)(CC)C(C)=N5)n3)nc2)CC1 (stereo not given)  6
2. CC1=Nc2ccc(-c3nc(Nc4ccc(C5CCNCC5)cn4)ncc3F)cc2C12CCCC2  7
3. CCC1(CC)C(C)=Nc2c(F)cc(-c3nc(Nc4ccc(N5CCN(C)CC5)cn4)ncc3F)cc21  11
4. CCC1(C)C(C)=Nc2ccc(-c3nc(Nc4ccc(N5CCNCC5)cn4)ncc3F)cc21 (stereo not given)  14
5. CCC1(C)C(C)=Nc2c(F)cc(-c3nc(Nc4ccc(N5CCN(C)CC5)cn4)ncc3F)cc21 (stereo not given)  153
6. CCN1CCC(c2ccc(Nc3ncc(F)c(-c4cc(F)c5c(c4)C4(CCCC4)C(C)=N5)n3)nc2)CC1  268

Tested on: not listed separately
Experiment: Oral bioavailability in Sprague-Dawley rat at 5 mg/kg administered as single dose by LC-MS/MS analysis
Format: ADME, organism-based
Conditions: Sprague-Dawley, in vivo

In order of rising bioavailability:
1. CCN1CCN(c2ccc(Nc3ncc(F)c(-c4cc(F)c5c(c4)C4(CCCC4)C(C)=N5)n3)nc2)CC1  16%
2. CCN1CCC(c2ccc(Nc3ncc(F)c(-c4cc(F)c5c(c4)C4(CCCC4)C(C)=N5)n3)nc2)CC1  35%

Tested on: not listed separately
Experiment: Cmax in Sprague-Dawley rat at 5 mg/kg, po administered as single dose by LC-MS/MS analysis
Format: ADME, organism-based
Design: dose 5 mg/kg, route oral
Conditions: in vivo

In order of falling Cmax:
1. CCN1CCC(c2ccc(Nc3ncc(F)c(-c4cc(F)c5c(c4)C4(CCCC4)C(C)=N5)n3)nc2)CC1  143 ng/mL
2. CCN1CCN(c2ccc(Nc3ncc(F)c(-c4cc(F)c5c(c4)C4(CCCC4)C(C)=N5)n3)nc2)CC1  70.4 ng/mL

Tested on: not listed separately
Experiment: Half life in Sprague-Dawley rat at 2 mg/kg, iv administered as single dose by LC-MS/MS analysis
Format: ADME, organism-based
Conditions: in vivo

In order of falling half-life:
1. CCN1CCC(c2ccc(Nc3ncc(F)c(-c4cc(F)c5c(c4)C4(CCCC4)C(C)=N5)n3)nc2)CC1  13.2 h
2. CCN1CCN(c2ccc(Nc3ncc(F)c(-c4cc(F)c5c(c4)C4(CCCC4)C(C)=N5)n3)nc2)CC1  7 h
3. CCC1(C)C(C)=Nc2c(F)cc(-c3nc(Nc4ccc(N5CCN(C)CC5)cn4)ncc3F)cc21 (stereo not given)  2.1 h
4. CCC1(CC)C(C)=Nc2c(F)cc(-c3nc(Nc4ccc(N5CCN(C)CC5)cn4)ncc3F)cc21  1.4 h

Molecular target: CDK6/cyclin D3 (Homo sapiens, UniProt Q00534)
Sequence (P30281 whole entry): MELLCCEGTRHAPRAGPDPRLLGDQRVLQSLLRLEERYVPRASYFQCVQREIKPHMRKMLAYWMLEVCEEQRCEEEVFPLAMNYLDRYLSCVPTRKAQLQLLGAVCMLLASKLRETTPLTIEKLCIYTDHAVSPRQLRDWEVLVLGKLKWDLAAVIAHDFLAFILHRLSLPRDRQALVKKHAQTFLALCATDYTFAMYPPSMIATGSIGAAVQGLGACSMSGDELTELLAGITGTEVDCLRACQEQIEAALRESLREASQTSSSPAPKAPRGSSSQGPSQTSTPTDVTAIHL
Sequence (Q00534 whole entry): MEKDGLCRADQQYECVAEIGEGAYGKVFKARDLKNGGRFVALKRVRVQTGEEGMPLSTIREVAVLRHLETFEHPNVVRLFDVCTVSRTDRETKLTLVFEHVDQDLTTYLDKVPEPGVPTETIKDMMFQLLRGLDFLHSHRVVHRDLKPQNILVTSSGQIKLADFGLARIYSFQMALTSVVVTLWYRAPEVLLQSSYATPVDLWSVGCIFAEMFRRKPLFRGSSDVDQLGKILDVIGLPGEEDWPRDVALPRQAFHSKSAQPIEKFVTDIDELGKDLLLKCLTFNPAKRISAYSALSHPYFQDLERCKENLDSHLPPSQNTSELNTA
Experiment: Inhibition of CDK6/Cyclin-D3 (unknown origin) using histoneH1 as substrate after 90 mins by ADP-Glo assay
Format: protein-complex assay
Conditions: not given

In order of falling IC50:
1. CCN1CCC(c2ccc(Nc3ncc(F)c(-c4ccc5c(c4)C(C)(CC)C(C)=N5)n3)nc2)CC1 (stereo not given)  19 nM
2. CCN1CCN(c2ccc(Nc3ncc(F)c(-c4cc(F)c5c(c4)C4(CCCC4)C(C)=N5)n3)nc2)CC1  16 nM
3. CC1=Nc2ccc(-c3nc(Nc4ccc(C5CCNCC5)cn4)ncc3F)cc2C12CCCC2  4 nM
4. CCN1CCC(c2ccc(Nc3ncc(F)c(-c4cc(F)c5c(c4)C4(CCCC4)C(C)=N5)n3)nc2)CC1  4 nM
5. CCC1(C)C(C)=Nc2c(F)cc(-c3nc(Nc4ccc(N5CCN(C)CC5)cn4)ncc3F)cc21 (stereo not given)  1 nM

Molecular target: CDK1/Cyclin A (Homo sapiens, UniProt P06493)
Sequence (P06493 whole entry): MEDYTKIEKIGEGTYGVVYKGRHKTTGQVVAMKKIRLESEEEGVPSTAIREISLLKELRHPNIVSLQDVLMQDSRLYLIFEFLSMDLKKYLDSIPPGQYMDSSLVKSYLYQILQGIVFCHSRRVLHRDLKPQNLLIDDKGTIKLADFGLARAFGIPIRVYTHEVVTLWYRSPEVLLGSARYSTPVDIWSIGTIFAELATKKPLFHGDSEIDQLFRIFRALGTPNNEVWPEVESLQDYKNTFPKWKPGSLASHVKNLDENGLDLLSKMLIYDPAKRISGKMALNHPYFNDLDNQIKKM
Sequence (P20248 whole entry, further chain): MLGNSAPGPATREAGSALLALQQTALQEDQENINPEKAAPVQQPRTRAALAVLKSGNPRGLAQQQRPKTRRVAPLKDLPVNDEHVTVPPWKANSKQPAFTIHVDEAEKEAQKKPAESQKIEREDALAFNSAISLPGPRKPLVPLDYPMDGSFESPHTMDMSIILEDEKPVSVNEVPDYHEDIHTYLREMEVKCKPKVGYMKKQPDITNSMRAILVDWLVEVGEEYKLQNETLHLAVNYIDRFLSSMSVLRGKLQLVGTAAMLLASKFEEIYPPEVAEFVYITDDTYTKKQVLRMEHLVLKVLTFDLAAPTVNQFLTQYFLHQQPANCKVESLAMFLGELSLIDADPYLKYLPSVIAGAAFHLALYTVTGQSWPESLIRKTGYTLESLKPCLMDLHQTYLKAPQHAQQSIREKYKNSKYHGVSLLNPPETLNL
Experiment: Inhibition of CDK1/Cyclin-A2 (unknown origin) using histone-H1 as substrate after 90 mins by ADP-Glo assay
Format: protein-complex assay
Conditions: not given

In order of falling IC50:
1. CCC1(C)C(C)=Nc2c(F)cc(-c3nc(Nc4ccc(N5CCN(C)CC5)cn4)ncc3F)cc21 (stereo not given)  153 nM
2. CCC1(C)C(C)=Nc2ccc(-c3nc(Nc4ccc(N5CCNCC5)cn4)ncc3F)cc21 (stereo not given)  142 nM
3. CCN1CCC(c2ccc(Nc3ncc(F)c(-c4ccc5c(c4)C(C)(CC)C(C)=N5)n3)nc2)CC1 (stereo not given)  125 nM
4. CCC1(CC)C(C)=Nc2c(F)cc(-c3nc(Nc4ccc(N5CCN(C)CC5)cn4)ncc3F)cc21  96 nM

Tested on: not listed separately
Experiment: Clearance in Sprague-Dawley rat at 2 mg/kg, iv administered as single dose by LC-MS/MS analysis
Format: ADME, organism-based
Conditions: in vivo

In order of rising clearance:
1. CCN1CCC(c2ccc(Nc3ncc(F)c(-c4cc(F)c5c(c4)C4(CCCC4)C(C)=N5)n3)nc2)CC1  10.8 mL/min/kg
2. CCN1CCN(c2ccc(Nc3ncc(F)c(-c4cc(F)c5c(c4)C4(CCCC4)C(C)=N5)n3)nc2)CC1  15 mL/min/kg
3. CCC1(C)C(C)=Nc2c(F)cc(-c3nc(Nc4ccc(N5CCN(C)CC5)cn4)ncc3F)cc21 (stereo not given)  69.2 mL/min/kg
4. CCC1(CC)C(C)=Nc2c(F)cc(-c3nc(Nc4ccc(N5CCN(C)CC5)cn4)ncc3F)cc21  167 mL/min/kg

Tested on: not listed separately
Experiment: AUC (0 to 24 hrs) in Sprague-Dawley rat at 5 mg/kg, po administered as single dose by LC-MS/MS analysis
Format: ADME, organism-based
Design: time < 24 hr, dose 5 mg/kg, route oral
Conditions: in vivo

In order of falling AUC(0-t) at 24 h:
1. CCN1CCC(c2ccc(Nc3ncc(F)c(-c4cc(F)c5c(c4)C4(CCCC4)C(C)=N5)n3)nc2)CC1  1980 ng·h/mL
2. CCN1CCN(c2ccc(Nc3ncc(F)c(-c4cc(F)c5c(c4)C4(CCCC4)C(C)=N5)n3)nc2)CC1  842 ng·h/mL

Tested on: not listed separately
Experiment: Half life in Sprague-Dawley rat at 5 mg/kg, po administered as single dose by LC-MS/MS analysis
Format: ADME, organism-based
Conditions: in vivo

CCN1CCN(c2ccc(Nc3ncc(F)c(-c4cc(F)c5c(c4)C4(CCCC4)C(C)=N5)n3)nc2)CC1 showed a half-life of 9.8 h.

Tested on: not listed separately
Experiment: Volume of distribution at steady state in Sprague-Dawley rat at 2 mg/kg, iv administered as single dose by LC-MS/MS analysis
Format: ADME, organism-based
Conditions: in vivo, read-out: Vdss

In order of falling Vd:
1. CCC1(CC)C(C)=Nc2c(F)cc(-c3nc(Nc4ccc(N5CCN(C)CC5)cn4)ncc3F)cc21  17.9 L/kg
2. CCN1CCC(c2ccc(Nc3ncc(F)c(-c4cc(F)c5c(c4)C4(CCCC4)C(C)=N5)n3)nc2)CC1  11.6 L/kg
3. CCC1(C)C(C)=Nc2c(F)cc(-c3nc(Nc4ccc(N5CCN(C)CC5)cn4)ncc3F)cc21 (stereo not given)  6.4 L/kg
4. CCN1CCN(c2ccc(Nc3ncc(F)c(-c4cc(F)c5c(c4)C4(CCCC4)C(C)=N5)n3)nc2)CC1  5.7 L/kg

Tested on: not listed separately
Experiment: AUC (0 to infinity) in Sprague-Dawley rat at 5 mg/kg, po administered as single dose by LC-MS/MS analysis
Format: ADME, organism-based
Design: dose 5 mg/kg, route oral, time infinity
Conditions: Sprague-Dawley, in vivo

For CCN1CCN(c2ccc(Nc3ncc(F)c(-c4cc(F)c5c(c4)C4(CCCC4)C(C)=N5)n3)nc2)CC1, the AUC(0-inf) was 1360 ng·h/mL.

Tested on: not listed separately
Experiment: AUC (0 to 24 hrs) in Sprague-Dawley rat at 2 mg/kg, iv administered as single dose by LC-MS/MS analysis
Format: ADME, organism-based
Design: dose 2 mg/kg, time < 24 hr, route intravenous
Conditions: in vivo

In order of rising AUC(0-t) at 24 h:
1. CCC1(CC)C(C)=Nc2c(F)cc(-c3nc(Nc4ccc(N5CCN(C)CC5)cn4)ncc3F)cc21  204 ng·h/mL
2. CCC1(C)C(C)=Nc2c(F)cc(-c3nc(Nc4ccc(N5CCN(C)CC5)cn4)ncc3F)cc21 (stereo not given)  496 ng·h/mL
3. CCN1CCN(c2ccc(Nc3ncc(F)c(-c4cc(F)c5c(c4)C4(CCCC4)C(C)=N5)n3)nc2)CC1  2110 ng·h/mL
4. CCN1CCC(c2ccc(Nc3ncc(F)c(-c4cc(F)c5c(c4)C4(CCCC4)C(C)=N5)n3)nc2)CC1  2250 ng·h/mL
